In PubChem BioAssay AID2060903 (Molecular Pharmacology Branch, DTP, NCI, 2025):

Tested on: 377384-186-R-J1-PDC complex spheroid viability
Assay: Anticancer human tumor 377384-186-R-J1-PDC patient-derived pancreatic carcinoma cell line growth inhibition [RAS]
Conditions: for IC50: curve of first compound; for viability, T/C: stronger effect = lower value
Excerpt: RAS pathway inhibitors in Combinations in Complex Spheroids
A high-throughput screen of multi-cell type tumor spheroids was designed to identify active combinations of RAS pathway inhibitors and targeted small molecules. Complex spheroids include a stromal component modeled by human endothelial cells (HUVEC) and fibroblasts modeled by human mesenchymal stem cells (MSCs). The concentration ranges selected for each drug and investigational agent were based upon clinically achievable concentrations if the clinical Cmax of the agent was known.
Compounds. The drugs and investigational agents: abemaciclib (NSC768073), cobimetinib (NSC768068), divarasib (GDC6063, NSC841802), docetaxel (NSC628503), GDC-1971 (RLY-1971, NSC841576), gemcitabine (NSC613327), inavolisib (NSC800729), ipatasertib (NSC767898), KB-0742 (NSC834161), MRTX-1133 (NSC836407), osimertinib (NSC779217), RMC-4630 (NSC839698), RMC-6236 (NSC851965), RMC-6291 (NSC852671), Ro-3306 (NSC812927), sapanisertib (NSC764658), SN-38 (NSC673596), staurosporine (NSC755774), SY5609 (NSC837396), and tovorafenib (DAY101, NSC766906), were obtained from the National Cancer Institute (NCI) Developmental Therapeutics Program Chemical Repository. The FDA-approved anticancer drug set is available from the NCI Developmental Therapeutics Program. […] The stock solutions were prepared in dimethyl sulfoxide (DMSO, Sigma-Aldrich, St. Louis, MO, cat. D2650) at 800-fold the tested concentration and stored at -70 degrees C prior to their use. All drugs and investigational agents were tested over a range starting from a high concentration at or near the clinical Cmax and decreasing in half-log increments. If the clinical Cmax for an agent had not been determined, the highest concentration tested was 10 microM.
Cell Culture. All cells were maintained in an incubator at 37 degrees C and 5% CO2 with 95% humidity. The PDC lines were cultured according to standard operating procedures established by the NCI PDMR. All PDCs were thawed and cultured in Matrigel-coated flasks prepared with a working solution of 1X Ham's F-12 nutrient mix, without supplementation (Invitrogen, Waltham, MA, cat. 11765054), 100 U/mL penicillin-streptomycin (Invitrogen, cat. 15140122), and 2.5% Matrigel (Corning Inc., Corning, NY, cat. 354248) for the first three passages. The 362531-283-R-J2-PDC and 782815-120-R-J1-PDC lines were cultured in 6C/Colon 1B media, which includes advanced DMEM/F-12 (Thermo Fisher Scientific, cat. 12634028), 10 mM HEPES (Thermo Fisher Scientific, cat. 15630080), 1X GlutaMAX supplement (Thermo Fisher Scientific, cat. 35050061), 0.1 mg/mL primocin (InvivoGen, San Diego, CA, cat. ant-pm-2), 10% defined fetal bovine serum, heat inactivated (HyClone Laboratories Inc., Logan, UT, cat. SH30070.03HI), 50% L-WRN conditioned media (ATCC, cat. CRL-3276), 1.25 mM N-Acetyl-L-cysteine (Sigma-Aldrich, cat. A9165), 10 mM nicotinamide (Sigma-Aldrich, cat. N0636), 1X B-27 supplement (Thermo Fisher Scientific, cat. 17504044), 1X N-2 supplement (Thermo Fisher Scientific, cat. 17502048), 50 ng/mL human EGF (Thermo Fisher Scientific, cat. PHG0311), and 10 microM Y-27632 dihydrochloride (Tocris Bioscience, cat. 1254). The K12877-001-R-J1-PDC line was cultured in 6I media, which includes all 6C/Colon 1B media plus 10 ng/mL human FGF-10 (PeproTech, cat. 100-26), 1 ng/mL human FGF-2 (PeproTech, cat. 100-18B), 1 µM prostaglandin E2 (Tocris Bioscience, cat. 2296), […] hydrocortisone (Sigma-Aldrich, cat. H4001), and […] bovine insulin (Sigma-Aldrich, cat. I6634). The K86415-001-R-J1-PDC line was cultured in 6D media, which includes all 6C/Colon 1B media components minus the L-WRN conditioned media. The 485176-168-R4-J1-PDC was cultured in PANC media, which includes all 6C/Colon 1B media plus 100 ng/mL human FGF-10 (PeproTech, cat. 100-26), 500 nM SB-431542 (Selleckchem, cat. S1067), and 10 nM gastrin (Tocris Bioscience, cat. 3006). […]
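Note: spheroids exposed to compounds for seven days before readout.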

Work on `C=CC(=O)N1CCN(c2nc(OCC3CCCN3C)nc3c(F)c(-c4nc(N)cc(C)c4C(F)(F)F)c(Cl)cc23)C(C)C1` (configuration not stated) + CCn1c(-c2cccnc2C(C)OC)c2c3cc(ccc31)N1CCOC(CC(NC(=O)C(C(C)C)N(C)C(=O)C3(F)CCN(C(=O)C#CC(C)(C)N(C)C)CC3)C(=O)N3CCCC(N3)C(=O)OCC(C)(C)C2)C1 yielded an IC50 (second compound 0.000949 µM) of over 1000 nM, an IC50 (second compound 0.003 µM) of over 1000 nM and an IC50 (second compound 0.00949 µM) of over 1000 nM. It also gave an IC50 (second compound 0.03 µM) of over 1000 nM, an IC50 (second compound 0.0949 µM) of over 1000 nM and an IC50 (second compound 0.3 µM) of over 1000 nM. The viability, T/C (second compound 0.000949 µM, first compound 0.00316 µM) was 107%, the viability, T/C (second compound 0.000949 µM, first compound 0.01 µM) was 108% and the viability, T/C (second compound 0.000949 µM, first compound 0.0316 µM) was 117%. It also gave a viability, T/C (second compound 0.000949 µM, first compound 0.1 µM) of 103%, a viability, T/C (second compound 0.000949 µM, first compound 0.316 µM) of 110% and a viability, T/C (second compound 0.000949 µM, first compound 1 µM) of 89.9%. The viability, T/C (second compound 0.003 µM, first compound 0.00316 µM) was 104%, the viability, T/C (second compound 0.003 µM, first compound 0.01 µM) was 96.4% and the viability, T/C (second compound 0.003 µM, first compound 0.0316 µM) was 103%. For the same compound, the viability, T/C (second compound 0.003 µM, first compound 0.1 µM) was 114%, the viability, T/C (second compound 0.003 µM, first compound 0.316 µM) was 104% and the viability, T/C (second compound 0.003 µM, first compound 1 µM) was 93.3%. It also gave a viability, T/C (second compound 0.00949 µM, first compound 0.00316 µM) of 113%, a viability, T/C (second compound 0.00949 µM, first compound 0.01 µM) of 97.7% and a viability, T/C (second compound 0.00949 µM, first compound 0.0316 µM) of 120%. It also gave a viability, T/C (second compound 0.00949 µM, first compound 0.1 µM) of 117%, a viability, T/C (second compound 0.00949 µM, first compound 0.316 µM) of 104% and a viability, T/C (second compound 0.00949 µM, first compound 1 µM) of 99.2%. The viability, T/C (second compound 0.03 µM, first compound 0.00316 µM) was 104%, the viability, T/C (second compound 0.03 µM, first compound 0.01 µM) was 96.7% and the viability, T/C (second compound 0.03 µM, first compound 0.0316 µM) was 99.7%. It also gave a viability, T/C (second compound 0.03 µM, first compound 0.1 µM) of 92.5%, a viability, T/C (second compound 0.03 µM, first compound 0.316 µM) of 99% and a viability, T/C (second compound 0.03 µM, first compound 1 µM) of 106%. It also gave a viability, T/C (second compound 0.0949 µM, first compound 0.00316 µM) of 93.3%, a viability, T/C (second compound 0.0949 µM, first compound 0.01 µM) of 91.3% and a viability, T/C (second compound 0.0949 µM, first compound 0.0316 µM) of 94.8%. It also gave a viability, T/C (second compound 0.0949 µM, first compound 0.1 µM) of 103%, a viability, T/C (second compound 0.0949 µM, first compound 0.316 µM) of 101% and a viability, T/C (second compound 0.0949 µM, first compound 1 µM) of 93.4%. The viability, T/C (second compound 0.3 µM, first compound 0.00316 µM) was 86.1%, the viability, T/C (second compound 0.3 µM, first compound 0.01 µM) was 86.3% and the viability, T/C (second compound 0.3 µM, first compound 0.0316 µM) was 96.8%. The viability, T/C (second compound 0.3 µM, first compound 0.1 µM) was 88.1%, the viability, T/C (second compound 0.3 µM, first compound 0.316 µM) was 96% and the viability, T/C (second compound 0.3 µM, first compound 1 µM) was 94.8%.
